pEC50, pIC50: −log10 of the molar value. “Also recorded” adds a separate entry of the source. Counter-ions that a name gives are not always drawn. Like-named read-outs stand apart in the source and are kept apart here.
How the values were obtained:
Trica5-HT1 [1] = molecular target: T1, Trica5-HT1 (Tribolium castaneum, UniProt R9ULB8); test: Aequorin-luminescence assay, agonist activation of Trica5-HT1 in CHO-WTA11 cells (apoaequorin + Gα16); assay type: cell-based; settings: for response at 100 µM agonist: Figure 3A; for agonist behaviour: dose-response 1 pM to 1 mM; for response at concentrations ≤100 µM: results not shown
T1 sequence (R9ULB8 entry or part of it): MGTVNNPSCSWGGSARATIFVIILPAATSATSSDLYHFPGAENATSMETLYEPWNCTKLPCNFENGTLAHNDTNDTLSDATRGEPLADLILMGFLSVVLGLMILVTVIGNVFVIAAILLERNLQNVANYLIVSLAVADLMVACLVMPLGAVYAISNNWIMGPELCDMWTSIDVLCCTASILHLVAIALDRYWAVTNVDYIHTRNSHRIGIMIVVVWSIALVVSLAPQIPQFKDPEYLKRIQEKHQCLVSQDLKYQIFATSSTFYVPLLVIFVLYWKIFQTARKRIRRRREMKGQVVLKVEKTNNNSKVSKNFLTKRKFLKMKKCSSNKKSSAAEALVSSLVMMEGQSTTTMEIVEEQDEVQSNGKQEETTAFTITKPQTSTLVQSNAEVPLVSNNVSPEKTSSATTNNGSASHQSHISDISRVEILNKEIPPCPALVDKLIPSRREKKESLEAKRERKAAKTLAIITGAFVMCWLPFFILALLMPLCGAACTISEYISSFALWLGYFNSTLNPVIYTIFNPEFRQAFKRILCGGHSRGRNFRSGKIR
Description: (§1) General binding studies were performed in Chinese hamster ovary (CHO) WTA11 cells stably coexpressing apoaequorin and the promiscuous Gα16. This allowed us to measure the pharmacology independent of the downstream signaling. CHO-PAM28 cells stably expressing apoaequorin, but not the promiscuous Gα16, and human embryonic kidney cells (HEK) 293 cells were used to measure downstream signaling via Ca^2+ and cAMP, respectively. CHO cell lines were provided by Prof. Marc Parmentier (University of Brussels, Belgium) and Dr. Michel Detheux (Euroscreen S.A., Belgium). HEK293 cells were a gift from Prof. Arnd Baumann (Research Centre Jülich, Germany.
(§2) Cells were cultured in vitro as monolayers at 37°C, 5% CO2 and high relative humidity, and subcultivated twice a week. For transfection of CHO cells, 2.5 ml Opti-MEM®I (Invitrogen), 5 µg plasmid DNA and 12.5 µl Plus^TMreagent (Invitrogen) were mixed, stored at room temperature for 5 min and next repleted with 30 µl Lipofectamine™LTX (Invitrogen). After 30 min incubation at room temperature, this transfection mixture was added dropwise to the cells together with 5 ml medium. HEK293 cells were cotransfected with receptor construct (4 µg) and CRE-luciferase construct (2 µg), consisting of the open reading frame of the reporter gene, luciferase, downstream of a multimerized cAMP-response-element (CRE6x), [39]. All transfections were performed in T75 flasks with a confluency of about 60 percent. Cells were grown overnight, after which 15 ml of medium was added for an additional overnight incubation period.
(§3) The transfected CHO cells were detached with phosphate buffered saline (PBS) containing 0.2% EDTA and collected in DMEM/F-12 (without phenol red, with L-glutamine and 10 mM HEPES) (Gibco). The amount of viable cells was determined using the NucleoCounter NC-100+TM (Chemometic). Cells were pelleted for 4 min at 800 rpm at room temperature and resuspended in BSA-medium (DMEM/F12 without phenol red, with L-glutamine and 10 mM HEPES, supplemented with 0.1% bovine serum albumin) to a concentration of 5×10^6 cells/ml. Coelenterazine H (Invitrogen) was added to a final concentration of 5 µM, and cells were gently shaken for 4 h at room temperature in the dark. After a 10-fold dilution in BSA-medium, cells were incubated another 30 min. The pharmacological ligands were dissolved in BSA-medium. For agonists, 50 µl containing the final ligand concentration was added to appropriate wells of a 96-well plate. For antagonists, 25 µl of the antagonist solution was supplemented with 25 µl of a 5-HT solution. Receptor activity was measured as the light emission after adding 50 µl of the cell suspension. Light emission was measured for 30 s using a Mithras LB940 (Berthold Technologies). Subsequently, cells were lysed with Triton X-100 (0.1% in BSA-medium) and light emission was recorded for another 8 s. BSA-medium was used as a negative control. Light emission from each well was calculated relative to the total response (ligand+Triton X-100) using the output file of Mikrowin2000 software (Mikrotek). Further analysis was done in Graphpad Prism 5.
In order to pharmacologically characterize Trica5-HT1, we used CHO-WTA11 cells stably expressing apoaequorin and the promiscuous Gα16 subunit. […] The dose-response relationship for 5-HT and these synthetic agonists was examined at concentrations ranging from 1 pM to 1 mM (Figure 3B). […] Since the efficacy achieved by any agonist depends on the number of receptors expressed, we measured a dose-response curve for 5-HT in every experiment and normalized all agonist effects to the maximum 5-HT response, set at 100% (Figure 3B).

Am5-HT1 = test system: Am5-HT1; set-up: method as in PMID 20349263; settings: cited from earlier work
Pea5-HT1 = test system: Pea5-HT1; set-up: method as in PMID 20233210; settings: cited from earlier work
Trica5-HT1 [2] = molecular target: T1, Trica5-HT1; test: Aequorin-luminescence assay, antagonist inhibition of 5-HT mediated activation of Trica5-HT1 in CHO-WTA11 cells; assay type: cell-based; settings: for inhibition of 5-HT induced responses (words): antagonist 10 nM to 1 mM; for logIC50 (mean ± SEM) / pIC50 / IC50: CHO-WTA11 cells; for nature of inhibition: 5-HT dose-response in presence of different antagonist concentrations; for inhibition of activation by 100 nM 5-HT at high concentrations (≥1 mM): antagonist ≥1 mM
Description: as §1, §2, §3
Potential antagonists were tested by simultaneously applying 5-HT (100 nM) and a high dose of antagonist (100 µM) to Trica5-HT1 expressing cells (Figure 4A). In addition, the dose-dependence of the antagonistic effects were measured with antagonist concentrations ranging from 10 nM to 1 mM (Figure 4B). […] We used the Gaddum/Schild plot to compare the inhibitory potencies of the antagonists by their pA2 values (i.e. the […] of the concentration of antagonist that doubles the amount of 5-HT required for obtaining the same effect).

[3] = receptor activation in CHO-WTA11 cells, given as negative log values
[4] = receptor activation in CHO-WTA11 cells, read-out: EC50
[5] = inhibition of 5-HT (100 nM) mediated activation, given as negative log values
[6] = inhibition of 5-HT (100 nM) mediated activation, read-out: IC50
[7] = inhibition of 5-HT (100 nM) mediated activation
[8] = logIC50 (mean ± SEM), inhibition of 5-HT (100 nM) mediated activation, given as negative log values
[9] = IC50, inhibition of 5-HT (100 nM) mediated activation

CCCN(CCC)C1CCc2cccc(O)c2C1 (racemic) [8-OH-DPAT, (±)-8-hydroxy-2-(dipropylamino)tetralin hydrobromide]
concentrations at which responses were evoked (Trica5-HT1 [1]; CHO-WTA11 cells): ≥ 100 µM | response at 100 µM agonist (Trica5-HT1 [1]; CHO-WTA11 cells): Significant responses | agonist behaviour (Trica5-HT1 [1]; CHO-WTA11 cells): very poor response | pEC50 (Trica5-HT1 [1]; EC50, receptor activation in CHO-WTA11 cells): 3.26 | pEC50 (Trica5-HT1 [1]; logEC50 (mean ± SEM), receptor activation in CHO-WTA11 cells, given as negative log values): 3.26 | agonist behaviour (Am5-HT1): poor agonist | agonist behaviour (Pea5-HT1): poor agonist

NCC(O)c1ccc(O)cc1 (racemic) [octopamine, DL-octopamine hydrochloride]
response at concentrations ≤100 µM (Trica5-HT1 [1]; CHO-WTA11 cells): did not generate any detectable responses

NCCc1c[nH]c2ccc(C(N)=O)cc12.O=C(O)/C=C\C(=O)O [5-CT, 5-carboxamidotryptamine maleate]
response at 100 µM agonist (Trica5-HT1 [1]; CHO-WTA11 cells): Significant responses | agonist behaviour (Trica5-HT1 [1]; CHO-WTA11 cells): partial agonists | logEC50 (mean ± SEM) (Trica5-HT1 [1]; [3]): −4.61±0.17 | pEC50 (Trica5-HT1 [1]; [4]): 4.61

COc1ccc2[nH]cc(CCN)c2c1 [5-MT, 5-methoxytryptamine]
response at 100 µM agonist (Trica5-HT1 [1]; CHO-WTA11 cells): Significant responses | agonist behaviour (Trica5-HT1 [1]; CHO-WTA11 cells): partial agonists | EC50 (Trica5-HT1 [1]; receptor activation in CHO-WTA11 cells, given as negative log values, read-out: logEC50 (mean ± SEM) (converted)): 91.2 µM | pEC50 (Trica5-HT1 [1]; [4]): 4.04

CC1CCN(CC[C@H]2CCCN2S(=O)(=O)c2cccc(O)c2)CC1.Cl [SB-269970, SB-269970 hydrochloride]
inhibition of 5-HT induced responses (words) (Trica5-HT1 [2]; 5-HT 100 nM): Moderate inhibition; also recorded: more effective inhibition | logIC50 (mean ± SEM) (Trica5-HT1 [2]; [5]): −3.69±0.25 | pIC50 (Trica5-HT1 [2]; [6]): 3.69

COc1ccccc1N1CCN(CCN(C(=O)C2CCCCC2)c2ccccn2)CC1 [WAY-100635, N-{2-[4-(2-methoxyphenyl)-1-piperazinyl]-ethyl}-N-(2-pyridinyl) cyclohexanecarboxamide]
antagonist behaviour (Am5-HT1): partial antagonist | inhibition of 5-HT induced responses (words) (Trica5-HT1 [2]; 5-HT 100 nM): no clear dose-dependent effect | IC50 (Trica5-HT1 [2]; [7]): no clear dose-dependence of inhibition | logIC50 (mean ± SEM) (Trica5-HT1 [2]; [5]): no clear dose-dependence of inhibition | inhibition of agonist stimulated receptor (Pea5-HT1): effective inhibition

CC(C)(C)[C@]1(O)CCN2C[C@H]3c4ccccc4CCc4cccc(c43)[C@@H]2C1 [butaclamol, (+)-butaclamol hydrochloride]
agonistic effects at high concentration (Trica5-HT1 [2]; 100 µM, with 5-HT 100 nM): some agonistic effects | inhibition of 5-HT induced responses (words) (Trica5-HT1 [2]; 5-HT 100 nM): no detectable inhibition | pIC50 (Trica5-HT1 [2]; [8]): 3.69

Cl.NCCc1ccc(O)c(O)c1.NCCc1ccc(O)c(O)c1 [dopamine, 3-hydroxytyramine (dopamine) hydrochloride]
response at concentrations ≤100 µM (Trica5-HT1 [1]; CHO-WTA11 cells): did not generate any detectable responses

O=C(c1ccc(F)cc1)C1CCN(CCn2c(=O)[nH]c3ccccc3c2=O)CC1 [ketanserin, ketanserin (+)-tartrate]
inhibition of 5-HT induced responses (words) (Trica5-HT1 [2]; 5-HT 100 nM): no detectable inhibition | IC50 (Trica5-HT1 [2]; [7]): no inhibition | logIC50 (mean ± SEM) (Trica5-HT1 [2]; [5]): no inhibition

CSc1ccc2c(c1)C(N1CCN(C)CC1)Cc1ccccc1S2 (stereo not drawn) [methiothepin, methiothepin mesylate]
inhibition of 5-HT induced responses (words) (Trica5-HT1 [2]; 5-HT 100 nM): effective dose-dependent inhibition | inhibition of 5-HT induced responses (words) (Trica5-HT1 [2]; 5-HT 100 nM, listed as Methiothepin): dose-dependent inhibition | nature of inhibition (Trica5-HT1 [2]): competitive antagonists | Kb (Trica5-HT1 [2]; Gaddum/Schild plot, 5-HT dose-response in presence of 10 nM to 1 mM antagonist, read-out: pA2 (± SEM) (converted)): 0.676 µM | inhibition of activation by 100 nM 5-HT at high concentrations (≥1 mM) (Trica5-HT1 [2]): completely inhibited | IC50 (Trica5-HT1 [2]; inhibition of 5-HT (100 nM) mediated activation, given as negative log values, read-out: logIC50 (mean ± SEM) (converted)): 16.2 µM | pIC50 (Trica5-HT1 [2]; [6]): 4.79

CC[C@@H](CO)NC(=O)[C@@H]1C=C2c3cccc4c3c(cn4C)C[C@H]2N(C)C1 [methysergide, methysergide maleate]
inhibition of 5-HT induced responses (words) (Trica5-HT1 [2]; 5-HT 100 nM): effective dose-dependent inhibition | nature of inhibition (Trica5-HT1 [2]): competitive antagonists | pIC50 (Trica5-HT1 [2]; [9]): 4.47 | inhibition of activation by 100 nM 5-HT at high concentrations (≥1 mM) (Trica5-HT1 [2]): completely inhibited | pIC50 (Trica5-HT1 [2]; [8]): 4.47

COc1cc2nc(N3CCN(C(=O)c4ccco4)CC3)nc(N)c2cc1OC [prazosin, prazosin hydrochloride]
inhibition of 5-HT induced responses (words) (Trica5-HT1 [2]; 5-HT 100 nM): effective dose-dependent inhibition | nature of inhibition (Trica5-HT1 [2]): competitive antagonists | pIC50 (Trica5-HT1 [2]; [9]): 5.86 | inhibition of activation by 100 nM 5-HT at high concentrations (≥1 mM) (Trica5-HT1 [2]): completely inhibited | pIC50 (Trica5-HT1 [2]; [8]): 5.86

NCCc1ccc(O)cc1 [tyramine, tyramine hydrochloride]
response at concentrations ≤100 µM (Trica5-HT1 [1]; CHO-WTA11 cells): did not generate any detectable responses

COC(=O)[C@@H]1[C@H]2C[C@H]3c4[nH]c5ccccc5c4CCN3C[C@@H]2CC[C@@H]1O [yohimbin, yohimbine hydrochloride]
inhibition (Trica5-HT1 [2]; 5-HT 100 nM, even at concentrations up to 100 µM): about 30%

CC(N)Cc1c[nH]c2ccc(O)cc12.O=C(O)/C=C\C(=O)O (stereo not drawn) [αm-5-HT, α-methylserotonin maleate]
response at 100 µM agonist (Trica5-HT1 [1]; CHO-WTA11 cells): Significant responses | fold less potent than 5-HT (Trica5-HT1 [1]; EC50 compared with 5-HT, CHO-WTA11 cells): more than 100 fold | logEC50 (mean ± SEM) (Trica5-HT1 [1]; [3]): −4.97±0.18 | pEC50 (Trica5-HT1 [1]; [4]): 4.97

Reference: PMC3669024, “Pharmacological Characterization of a 5-HT1-Type Serotonin Receptor in the Red Flour Beetle, Tribolium castaneum” (PLoS ONE, 2013)
